The values below come from patent US20140155362A1, “BHQ-CONJUGATES, AND RELATED COMPOUNDS, METHODS OF MAKING THE SAME, AND METHODS OF USE THEREOF” (priority 2011, published 2014).

Several values for one entry are separate records, joined by “and”; a condition that tells them apart may be missing. Equal entries are not always repeated.

Type in all cases: physicochemical
Data set [1] is described as follows: Determination of absorbance maximum and molar extinction coefficient (ε) in KMOPS buffer. Particulars: for ε (molar extinction coefficient): at λmax. Here is the method:
Determination of the Molar Extinction Coefficient (ε).
A weighed portion of BHQ-O-5HT was dissolved in methanol. A measured aliquot of this solution was withdrawn and placed in KMOPS buffer (3.0 mL) and mixed thoroughly to generate a 100-μM solution of BHQ-O-5HT. The absorbance A of this solution at τmax=368 nm was measured. This method was repeated twice with different masses of BHQ-O-5HT.
Determination of the Molar Extinction Coefficient (s).
A weighed portion of BHQ-VAA was dissolved in methanol. A measured aliquot of this solution was withdrawn and placed in KMOPS buffer (3.0 mL) and mixed thoroughly to generate a 100-μM solution of BHQ-VAA. The absorbance A of this solution at λmax=368 nm was measured. This method was repeated twice with different masses of BHQ-VAA.

Data set [2] in a line: Determination of the dark hydrolysis rate (τdark) in KMOPS. As to conditions: for τdark (time constant for dark hydrolysis): 100 μM in KMOPS, stored in the dark. The method, then: Determination of the Dark Hydrolysis Rate (τdark).
Three 100-μM solutions of BHQ-O-5HT in KMOPS were created and stored in the dark. Aliquots (20 μL) were removed periodically from each solution and analyzed by HPLC. The percents remaining for each time point for each solution were averaged and plotted versus time. A simple single exponential decay curve provided the best fit. The time constant for dark hydrolysis (τdark) was determined to be 260 h. The experiment was repeated for BHQ-N-5HT, and the time constant for dark hydrolysis (τdark) was determined to be 300 h.
Three 100-μM solutions of BHQ-VAA in KMOPS were created and stored in the dark. Aliquots (20 μL) were removed periodically from each solution and analyzed by HPLC. The percents remaining for each time point for each solution were averaged and plotted versus time. A simple single exponential decay curve provided the best fit. The time constant for dark hydrolysis (τdark) was determined to be 140 h.

The nature of data set [3]: Determination of the uncaging quantum efficiency (Qu), 1-photon photolysis at 365 nm. Particulars: for Qu (uncaging quantum efficiency): 365±15 nm, KMOPS. Here is the method: Determination of the Uncaging Quantum Efficiency (Qu).
(§1) The quantum efficiency was calculated using the equation Qu=(Iσt90%)^−1, where I is the irradiation intensity in einstein·cm^−2, σ is the decadic extinction coefficient (1,000 times ε) and t90% is the time in seconds required for the conversion of 90% of the starting material to product. To find t90%, a solution of BHQ-O-5HT in KMOPS was prepared and placed in a cuvette along with a small stir bar. While stirring, the solution was irradiated with UV light from a mercury lamp (Spectroline SB-100P, Spectronics Corporation) equipped with two glass filters (CS0-52, CS7-60, Ace Glass) so that the wavelength was restricted to 365±15 nm. Periodically, 20-μL aliquots were removed and analyzed by HPLC. The time points collected were as follows: 0, 5, 10, 20, 30, 60, 90, and 120 s. Percent BHQ-O-5HT remaining was plotted verses time of photolysis. A simple single exponential decay curve provided the best fit for the data and was used to extrapolate t90%. The lamp's UV intensity I was measured using potassium ferrioxalate actinometry. Initially, 6 mM potassium ferrioxalate solution (3 mL) was irradiated with the mercury lamp for 60 s. A portion of this solution (2 mL) was combined with aqueous buffer (3 mL), 0.1% phenanthroline solution (3 mL), and 2M KF solution (1 mL) in a 25-mL volumetric flask. Deionized water was added to generate a 25 mL solution. A blank solution was also prepared using the same method, but the potassium ferrioxalate used in the blank was not irradiated. Both solutions were allowed to sit for one hour and the blank was then used as a baseline against which the absorbance of the irradiated solution was measured at 510 nm. The following equation was used to calculate lamp intensity: […]
where V3 is the volume of dilution (25 mL), V2 is the volume of irradiated potassium ferrioxalate solution taken for analysis (2 mL), ΔD510 is the absorption of the solution at 510 nm, Σ510 is the actinometry extinction coefficient (1.11×10^4 M^−1 cm^−1),)Fe is the quantum yield for production of ferrous ions from potassium ferrioxalate at 365 nm, and t represents the time of irradiation. The ΔD510 value used for calculations is the average of two measurements taken before and after irradiation of BHQ-O-5HT. Compilation of the measurements yielded an uncaging quantum efficiency Qu, of 0.30. The experiment was repeated for BHQ-N-5HT, and compilation of the measurements yielded an uncaging quantum efficiency Qu of 0.10.
as §1, with “c)” for “ε)”, “BHQ-VAA” for “BHQ-O-5HT”, “irradiated.” for “irradiated. Both solutions were allowed to sit for one hour and the blank was then used as a baseline against which the absorbance of the irradiated solution was measured at 510 nm. The following equation was used to calculate lamp intensity:”

The mark [4] stands for this setting: Table 2.1, KMOPS buffer, 100 μM.
Setting [5] is: Table 1.1, KMOPS buffer, 100 μM.
Setting [6] is: BHQ-OPh, previous unpublished work (Zhu & Dore).

Regarding `COc1cc(CNC(C)=O)ccc1OCc1ccc2ccc(O)c(Br)c2n1` [BHQ-VAA], in data set [1] (setting [4]), the λmax is 368 nm and 370 nm; the “ε (molar extinction coefficient)” value was 2700 M⁻¹ cm⁻¹. Also, the “τdark (time constant for dark hydrolysis)” value in data set [2] (Table 2.1) came out at 140 h. Moreover, in data set [3] (Table 2.1), the Sensitivity Qu × ε worked out at 486 M⁻¹ cm⁻¹ and the “Qu (uncaging quantum efficiency)” value came to 0.18.
Take `O=C(NCCc1c[nH]c2ccc(O)cc12)OCc1ccc2ccc(O)c(Br)c2n1` [BHQ-N-5HT]: in data set [1] (setting [5]), the λmax is reported as 370 nm and the “ε (molar extinction coefficient)” value is listed as 2,100 M^−1 cm^−1. In addition, the “τdark (time constant for dark hydrolysis)” value in data set [2] (Table 1.1) came to 300 h. Also, in data set [3] (Table 1.1), the Sensitivity Qu × ε was 210 M⁻¹ cm⁻¹ and the “Qu (uncaging quantum efficiency)” value was 0.10.
`Oc1ccc2ccc(COc3ccccc3)nc2c1Br` [BHQ-OPh]: in data set [1] (setting [6]), the ε is 3200 M⁻¹ cm⁻¹ and the λmax turned out to be 369. In addition, the “time constant for hydrolysis in the dark τdark” value in data set [2] (simulated physiological conditions, dark) is reported as 95 h. Further, the “quantum efficiency Qu” value in data set [3] (1-photon photolysis at 365 nm, pH 7.2 KMOPS) is 0.19.
For the molecule `NCCc1c[nH]c2ccc(OCc3ccc4ccc(O)c(Br)c4n3)cc12` [BHQ-O-5HT], in data set [1] (setting [5]), the λmax came to 368 nm and the “ε (molar extinction coefficient)” value is given as 2,000 M^−1 cm^−1. The “τdark (time constant for dark hydrolysis)” value in data set [2] (Table 1.1) was determined as 260 h. Further, in data set [3] (Table 1.1), the Sensitivity Qu × ε was found to be 600 M⁻¹ cm⁻¹ and the “Qu (uncaging quantum efficiency)” value was determined as 0.30.
